A short description of series [1]: human pharmacokinetics: plasma concentration over time after oral dose. The class given is in vivo. As to the method:
The two sets of dashed, horizontal lines indicate the plasma concentration that is three-times (3×) the IC50 and the plasma concentration that is one-time (1×) the IC50 of 4-{[(1S,4S)-5-({4-[4-oxazol-2-yl-phenoxy]phenyl}methyl)-2,5-diazabicyclo[2.2.1]heptan-2-yl]methyl}benzoic acid in human blood.
(§1) Thus, oral human doses as low as 10 mg can provide therapeutic benefit in the current formulation and, with improved formulation, doses as low as 5 mg can achieve therapeutic levels of the compound in blood.

In a further series the target is T1, LTA4-h (Homo sapiens, UniProt P09960).
T1 construct: in human whole blood has been determined using an ex vivo assay; from tissue; host or cells: human whole blood (male and female donors)
T1 sequence (P09960 1-611): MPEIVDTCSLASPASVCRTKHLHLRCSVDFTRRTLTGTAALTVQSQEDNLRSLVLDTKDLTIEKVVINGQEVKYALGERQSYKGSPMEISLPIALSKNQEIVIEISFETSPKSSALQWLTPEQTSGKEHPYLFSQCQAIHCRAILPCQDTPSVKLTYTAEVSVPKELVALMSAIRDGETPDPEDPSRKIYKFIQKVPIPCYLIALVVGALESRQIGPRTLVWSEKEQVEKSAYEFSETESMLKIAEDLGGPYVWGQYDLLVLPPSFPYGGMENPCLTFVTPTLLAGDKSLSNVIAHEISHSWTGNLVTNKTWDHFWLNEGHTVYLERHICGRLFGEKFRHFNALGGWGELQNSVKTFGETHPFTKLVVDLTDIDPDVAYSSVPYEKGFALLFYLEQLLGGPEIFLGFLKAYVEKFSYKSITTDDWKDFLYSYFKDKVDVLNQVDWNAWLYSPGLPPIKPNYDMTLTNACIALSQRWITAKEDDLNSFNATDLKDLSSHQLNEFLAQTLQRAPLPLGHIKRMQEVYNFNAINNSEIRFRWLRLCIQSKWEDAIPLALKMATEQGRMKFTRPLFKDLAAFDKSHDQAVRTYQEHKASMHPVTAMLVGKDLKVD
The series can be described thus: human whole blood ex vivo assay: A23187-stimulated LTB4 production measured by ELISA. It is filed as cell-based. To be noted: IC50 in human whole blood.
Excerpt: The IC50 of 4-{[(1S,4S)-5-({4-[4-oxazol-2-yl-phenoxy]phenyl}methyl)-2,5-diazabicyclo[2.2.1]heptan-2-yl]methyl}benzoic acid in human whole blood has been determined using an ex vivo assay. The human whole blood assay has been described in Penning et al (2000), Structure and Activity Relationship Studies on 1-[2-(4-Phenylphenoxy)ethyl]pyrrolidone (SC-22716), a Potent Inhibitor of Leukotriene A4 (LTA4) hydrolase, J. Med. Chem. 43: 721-735, the contents of which are expressly incorporated by reference herein. In this assay, LTB4 production is stimulated by addition of calcium ionophone (A23187) in the absence or presence of varied concentrations of 4-{[(1S,4S)-5-({4-[4-oxazol-2-yl-phenoxy]phenyl}methyl)-2,5-diazabicyclo[2.2.1]heptan-2-yl]methyl}benzoic acid. The ability of 4-{[(1S,4S)-5-({4-[4-oxazol-2-yl-phenoxy]phenyl}methyl)-2,5-diazabicyclo[2.2.1]heptan-2-yl]methyl}benzoic acid to reduce is LTB4 production is determined by ELISA. This ELISA assay was performed using the Leukotriene B4 EIA Kit available from Cayman Chemical (Item No. 520111) and the assay was performed according to the manufacturer's instructions.
as §1
(An ELISA detects its analyte on a solid surface through an enzyme-linked reagent.)

SMILES strings stand for the structures.

Usually IC50 stands for the concentration that gives 50% inhibition. Consider `O=C(O)c1ccc(CN2C[C@@H]3C[C@H]2CN3Cc2ccc(Oc3ccc(-c4ncco4)cc3)cc2)cc1` [4-{[(1S,4S)-5-({4-[4-oxazol-2-yl-phenoxy]phenyl}methyl)-2,5-diazabicyclo[2.2.1]heptan-2-yl]methyl}benzoic acid], for which the “peak plasma concentration relative to the IC50” value in series [1] (5 mg oral dose) is “nearly achieves the IC50”. In addition, in series [1] (15 mg oral dose), the “time for which the blood plasma level exceeds the IC50” value is recorded as “over 12 hours”. Further, the “time for which the blood plasma level exceeds 3-times the IC50” value in series [1] (50 mg oral dose) is recorded as “over 24 hours”. The IC50 against LTA4-h (female blood) was 68 nM; on LTA4-h (human whole blood, LTB4 production stimulated by calcium ionophore A23187) it was about 62.3 nM; against LTA4-h (male blood), 60 nM.
